Laboratory results published in patent publication US9676756B2 (PORTOLA PHARMACEUTICALS, INC., priority 2012, dated 2017).

Tests used:
Type in all cases: biochemical
[1] = molecular target: T1, full length active recombinant SYK enzyme (Homo sapiens, UniProt P43405); assay: SYK tyrosine phosphorylation activity, LANCE TR-FRET kinase assay; details: 1 nM SYK, 100 μM ATP, 1 hour at room temperature
T1 construct: full length active recombinant SYK enzyme (Millipore, CA); purchased Millipore
Experimental: Potency of candidate molecules for inhibiting Syk tyrosine phosphorylation activity is assessed by measuring the ability of a test compound to inhibit Syk-mediated tyrosine phosphorylation of a Syk-specific substrate.
SYK tyrosine phosphorylation activity is measured using the LANCE™ Technology developed by Perkin Elmer Life and Analytical Sciences (Boston, Mass.). LANCE™ refers to homogeneous time resolved fluorometry applications using techniques such as time-resolved fluorescence resonance energy transfer assay (TR-FRET) (see generally for procedures in Perkin Elmer Application Note—How to Optimize a Tyrosine Kinase Assay Using Time Resolved Fluorescence-Based LANCE Detection, wwww.perkinelmer.com/lifesciences). The assay principle involves detection of a phosphorylated substrate using energy transfer from a phosphospecific europium-labeled antibody to streptavidin-allophycocyanin as an acceptor.
To test the ability of candidate molecules to inhibit SYK tyrosine phosphorylation activity, molecules are reconstituted in 30% DMSO and serially diluted 1:3 with the final dilution containing DMSO in the absence of the candidate molecule. The final DMSO concentration in the assay is 3%. Kinase assays are performed as a two part reaction. The first reaction is a kinase reaction that comprises a candidate molecule, full length active recombinant SYK enzyme (Millipore, CA) and biotin-labeled SYK-specific substrate biotin-[…]-OH. The second reaction involves termination of the kinase reaction and the simultaneous addition of the detection reagents-europium-labeled anti-phosphotyrosine reagent (Eu-W1024-PY100, Perkin Elmer, Boston, Mass.) and Streptavidin-Allophycocyanin detection reagent (SA-APC, Prozyme, CA). The kinase reaction is performed in a black U-bottom 96-well microtitre plate. The final reaction volume is 50 μL and contains a final concentration of 1 nM active SYK enzyme, 550 nM SYK-substrate, and 100 μM ATP diluted in a buffer containing 50 mM Tris pH 7.5, 5 mM MgCl2, and 1 mM DTT. The reaction is allowed to proceed for 1 hour at room temperature. The stop buffer contains 100 mM Tris pH 7.5, 300 mM NaCl2, 20 mM EDTA, 0.02% Brij35, and 0.5% BSA. The detection reagents are added to the reaction mixture at the following dilutions—1:500 for Eu-W1024-PY100 and 1:250 for SA-APC. The kinase reaction is terminated by the addition of 50 μL stop buffer containing the detection reagents. The detection is allowed to proceed for 1 hr at room temperature. Detection of the phosphorolated substrate in the absence and presence of inhibitors is measured in the TR-FRET instrument, Analyst HT (Molecular Probes, Sunnyvale, Calif.) and the condition for measurements are set up using CriterionHost Release 2.0 (Molecular Probes, Sunnyvale, Calif.). The settings used are a follows: excitation 360 nm, emission 665-7.5 nm, beam splitter 350 nm 50/50, flash 100 pulses, delay 60 us, integration 400 us, z-height 2 mm. Inhibition of SYK-tyrosine kinase activity is calculated as the maximum response observed in the presence of inhibitor, compared to that in the absence of inhibitor. IC50s are derived by non-linear regression analysis.

JAK3 = molecular target: T2, JAK3 (Homo sapiens, UniProt P52333); assay: JAK tyrosine phosphorylation activity, Z'-LYTE FRET kinase assay; details: catalytic domain recombinant kinase, Tyr6 peptide
T2 construct: 5 μl of catalytic domain recombinant Kinase enzyme+Tyr peptide substrate (Invitrogen, CA); purchased Invitrogen
Experimental: (§1) JAK and SYK tyrosine phosphorylation activity is measured using the Z'-LYTE™ Technology developed by Invitrogen Corporation (Carlsbad, Calif.). For JAK1, JAK2 and JAK3 the Z'-LYTE™ Kinase Assay Kit-Tyr6 Peptide (part number PV4122) was used. The Z'-LYTE™ biochemical assay employs a fluorescence resonance energy transfer (FRET) coupled-enzyme format and is based on the differential sensitivity of phosphorylated and non-phosphorylated peptides to proteolitic cleavage. The assay uses a synthetic peptide substrate that is labelled with a donor fluorophore (coumarin) and an acceptor fluorophore (fluorescein) that make up a FRET pair. In the primary reaction (the Kinase Reaction), the kinase transfers the γ-phosphate of ATP to a single tyrosine residue on the substrate, while the presence of a kinase inhibitor in the primary reaction suppresses phosphorylation. In the secondary reaction (the Development Reaction), a site-specific protease (the Development Reagent) is added. The development buffer quenches the Kinase Reaction, while the protease recognizes and cleaves non-phosphorylated Z'-LYTE™ peptide substrate. Cleavage disrupts FRET between the donor and acceptor fluorophores on the non-phosphorylated substrate, while uncleaved, phosphorylated substrate maintains FRET.
(§2) To test the ability of candidate molecules to inhibit JAK tyrosine phosphorylation activity, molecules are reconstituted in 100% DMSO and serially diluted 1:10 in polypropylene v-bottom microtiter plates. The candidate molecules are then diluted 1:25 into kinase buffer and 2.5 μl transferred into duplicate wells of a 384 well low volume black microtiter assay plate (Corning, USA). The final DMSO concentration in the assay is 1%. The kinase reaction contains 2.5 μl of a candidate molecule, 5 μl of catalytic domain recombinant Kinase enzyme+Tyr peptide substrate (Invitrogen, CA) and 2.5 μl ATP (Invitrogen, CA). The kinase reaction is allowed to precede for 1 hour at room temperature. The protease reaction is initiated by the addition of 5 μl Development Reagent (Invitrogen, CA). After 1 hour incubation at room temperature the fluorescence is measured using a FlexStation plate reader (Molecular Devices, Sunnyvale, Calif.). The reader settings used are as follows: Fluorescence mode, endpoint, top read, excitation 400 nm, emission 445 nm and 520 nm. Auto Cutoff 435 nm and 515 nm, PMT sensitivity high, 6 reads per well. Inhibition of JAK activity is calculated as the percent phosphorylation of substrate in the presence of inhibitor compared to the percent phosphorylation of substrate in the absence of inhibitor. IC50's were derived using Xlfit 4.3 (IDBS, UK), 4 parameter logistic model 205: Y=(A+((B−A)/(1+((C/x)^D)))).

JAK1 = molecular target: T3, JAK1 (Homo sapiens, UniProt P23458); assay: as above; details: catalytic domain recombinant kinase, Tyr6 peptide
T3 construct: 5 μl of catalytic domain recombinant Kinase enzyme+Tyr peptide substrate (Invitrogen, CA); purchased Invitrogen
Experimental: as §1, §2

JAK2 = molecular target: T4, JAK2 (Homo sapiens, UniProt O60674); assay: as above; details: catalytic domain recombinant kinase, Tyr6 peptide
T4 construct: 5 μl of catalytic domain recombinant Kinase enzyme+Tyr peptide substrate (Invitrogen, CA); purchased Invitrogen
Experimental: as §1, §2

T4 sequence (O60674 849-1124 limits assumed): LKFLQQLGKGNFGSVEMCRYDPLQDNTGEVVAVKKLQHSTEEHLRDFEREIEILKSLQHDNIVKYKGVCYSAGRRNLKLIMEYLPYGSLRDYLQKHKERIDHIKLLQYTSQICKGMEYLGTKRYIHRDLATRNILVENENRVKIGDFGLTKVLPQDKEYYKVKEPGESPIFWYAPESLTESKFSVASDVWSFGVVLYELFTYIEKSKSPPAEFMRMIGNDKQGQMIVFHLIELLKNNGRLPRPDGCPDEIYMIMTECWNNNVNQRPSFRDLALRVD
T3 sequence (P23458 875-1153 limits assumed): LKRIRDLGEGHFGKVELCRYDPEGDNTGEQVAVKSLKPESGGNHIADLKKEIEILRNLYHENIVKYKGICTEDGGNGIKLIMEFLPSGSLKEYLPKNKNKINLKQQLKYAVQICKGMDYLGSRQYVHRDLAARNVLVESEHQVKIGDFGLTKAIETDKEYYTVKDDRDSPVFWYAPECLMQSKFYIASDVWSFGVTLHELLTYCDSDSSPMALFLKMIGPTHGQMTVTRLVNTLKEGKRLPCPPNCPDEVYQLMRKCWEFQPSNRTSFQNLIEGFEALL
T2 sequence (P52333 822-1111 limits assumed): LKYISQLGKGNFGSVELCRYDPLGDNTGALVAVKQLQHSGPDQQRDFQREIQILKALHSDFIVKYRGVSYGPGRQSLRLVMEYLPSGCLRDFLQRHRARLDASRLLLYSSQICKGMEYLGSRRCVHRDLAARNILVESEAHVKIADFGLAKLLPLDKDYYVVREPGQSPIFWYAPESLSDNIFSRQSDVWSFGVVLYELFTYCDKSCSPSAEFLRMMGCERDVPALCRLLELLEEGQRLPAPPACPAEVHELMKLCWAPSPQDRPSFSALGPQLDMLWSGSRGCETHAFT

CN(C)C(=O)N1CCC(c2ccc(Nc3ncc(C(N)=O)c(NC4CC4)n3)cc2)CC1 [Compound 5, 4-(cyclopropylamino)-2-((4-(1-(dimethylcarbamoyl)piperidin-4-yl)phenyl)amino)pyrimidine-5-carboxamide]
IC50 [1]: +++ (0.10 uM<IC50<0.01 uM)
JAK3 IC50 potency class (JAK3): ++++ (0.01 uM<IC50<0.001 uM)
JAK1 IC50 potency class (JAK1): +++ (0.10 uM<IC50<0.01 uM)
JAK2 IC50 potency class (JAK2): ++++ (0.01 uM<IC50<0.001 uM)

CCS(=O)(=O)N1CC=C(c2ccc(Nc3ncc(C(N)=O)c(NC4CC4)n3)cc2)CC1 [Compound 57, 4-(cyclopropylamino)-2-((4-(1-(ethylsulfonyl)-1,2,3,6-tetrahydropyridin-4-yl)phenyl)amino)pyrimidine-5-carboxamide]
IC50 [1]: +++ (0.10 uM<IC50<0.01 uM)
JAK3 IC50 potency class (JAK3): ++++ (0.01 uM<IC50<0.001 uM)
JAK1 IC50 potency class (JAK1): +++ (0.10 uM<IC50<0.01 uM)
JAK2 IC50 potency class (JAK2): +++ (0.10 uM<IC50<0.01 uM)

NC(=O)c1cnc(Nc2ccc(C3=CCNCC3)cc2)nc1NC1CC1 [Compound 56, 4-(cyclopropylamino)-2-((4-(1,2,3,6-tetrahydropyridin-4-yl)phenyl)amino)pyrimidine-5-carboxamide]
IC50 [1]: +++ (0.10 uM<IC50<0.01 uM)
JAK3 IC50 potency class (JAK3): ++++ (0.01 uM<IC50<0.001 uM)
JAK1 IC50 potency class (JAK1): +++ (0.10 uM<IC50<0.01 uM)
JAK2 IC50 potency class (JAK2): +++ (0.10 uM<IC50<0.01 uM)

CC(C)N1CCC(c2ccc(Nc3ncc(C(N)=O)c(NC4CC4)n3)cc2)CC1 [Compound 4, 4-(cyclopropylamino)-2-((4-(1-isopropylpiperidin-4-yl)phenyl)amino)pyrimidine-5-carboxamide]
IC50 [1]: +++ (0.10 uM<IC50<0.01 uM)
JAK3 IC50 potency class (JAK3): ++++ (0.01 uM<IC50<0.001 uM)
JAK1 IC50 potency class (JAK1): +++ (0.10 uM<IC50<0.01 uM)
JAK2 IC50 potency class (JAK2): +++ (0.10 uM<IC50<0.01 uM)

N#CCC(=O)N1CCC(c2ccc(Nc3ncc(C(N)=O)c(NC4CC4)n3)cc2)CC1 [Compound 25, 2-((4-(1-(2-cyanoacetyl)piperidin-4-yl)phenyl)amino)-4-(cyclopropylamino)pyrimidine-5-carboxamide]
IC50 [1]: +++ (0.10 uM<IC50<0.01 uM)
JAK3 IC50 potency class (JAK3): ++++ (0.01 uM<IC50<0.001 uM)
JAK1 IC50 potency class (JAK1): +++ (0.10 uM<IC50<0.01 uM)
JAK2 IC50 potency class (JAK2): ++++ (0.01 uM<IC50<0.001 uM)

CCS(=O)(=O)N1CCN(c2ccc(Nc3ncc(C(N)=O)c(NC4CC4)n3)cc2OC)CC1 [Compound 9, 4-(cyclopropylamino)-2-((4-(4-(ethylsulfonyl)piperazin-1-yl)-3-methoxyphenyl)amino)pyrimidine-5-carboxamide]
IC50 [1]: +++ (0.10 uM<IC50<0.01 uM)
JAK3 IC50 potency class (JAK3): ++++ (0.01 uM<IC50<0.001 uM)
JAK1 IC50 potency class (JAK1): +++ (0.10 uM<IC50<0.01 uM)
JAK2 IC50 potency class (JAK2): ++++ (0.01 uM<IC50<0.001 uM)

CS(=O)(=O)N1CCN(c2c(F)cc(Nc3ncc(C(N)=O)c(NC4CC4)n3)cc2F)CC1 [Compound 49, 4-(cyclopropylamino)-2-((3,5-difluoro-4-(4-(methylsulfonyl)piperazin-1-yl)phenyl)amino)pyrimidine-5-carboxamide]
IC50 [1]: ++ (1.0 uM<IC50<0.10 uM)
JAK3 IC50 potency class (JAK3): +++ (0.10 uM<IC50<0.01 uM)
JAK1 IC50 potency class (JAK1): ++ (1.0 uM<IC50<0.10 uM)
JAK2 IC50 potency class (JAK2): +++ (0.10 uM<IC50<0.01 uM)

CC(C)S(=O)(=O)N1CCC(c2ccc(Nc3ncc(C(N)=O)c(NC4CC4)n3)cc2)CC1 [Compound 3, 4-(cyclopropylamino)-2-((4-(1-(isopropylsulfonyl)piperidin-4-yl)phenyl)amino)pyrimidine-5-carboxamide]
IC50 [1]: +++ (0.10 uM<IC50<0.01 uM)
JAK3 IC50 potency class (JAK3): ++++ (0.01 uM<IC50<0.001 uM)
JAK1 IC50 potency class (JAK1): +++ (0.10 uM<IC50<0.01 uM)
JAK2 IC50 potency class (JAK2): ++++ (0.01 uM<IC50<0.001 uM)
